In patent US5663197A, “2-(1-hydroxyethyl)-5-hydroxynaphtho[2,3-b]furan-4,9-dione and antitumor agents comprising this compound” (priority 1992, dated 1997):
≈ marks a conversion by molar mass, not a printed value.

How the values were obtained:
malignant tumor cells = assay: In vitro antitumor test, panel of malignant tumor cells; type: cell-based, human and mouse
Procedure: (§1) An appropriate amount of NFD was dissolved in DMSO to give a 1.0 mg/ml stock solution, which was diluted as necessary before use.
The antitumor effect of NFD on human cancer cells and mouse cancer cells was assessed according to the following methods.
(§2) The following cells in the late logarithmic phase were harvested after treatment with trypsin (containing 0.25% trypsin and 0.02% EDTA; 37° C., 3 min) and used in the test: human lung adenocarcinoma cell lines A-549, VMRC-LCD and SK-LU-1, human lung squamous cell carcinoma Calu-1 cells, human colon adenocarcinoma WiDr cells, human prostate cancer LNCaP cells, human vaginal squamous cell carcinoma A-431 cells, human cervical carcinoma HeLa cells, human cholangiocarcinoma HuCC-T1 cells, mouse skin cancer melanoma B16 (M4) cells, human pancreatic carcinoma ASPC-1 cells, human neuroblastoma IMR-132 cells, human lung small cell carcinoma SCCH-194 cells, human uninary bladder carcinoma T24 cells, human renal cell carcinoma […] cells, human gastric cancer NUGC-2 cells, human thyroid carcinoma 8305C cells, human hepatoma HUH-7 cells, human ovarian carcinoma TYK-nu cells and human chorio carcinoma BeWo cells. Suspension cultures of human breast cancer MRK-nu-1 cells, human malignant B-cell lymphoma cells and human chronic myelogenous leukemia K562 cells were used to harvest the cells to be used in the test. […] These cells were plated onto a 96-well microplate at a density of 5-10×10^3 cells/cm^2 using DMEM or RPMI-1640 medium containing 10% fetal bovine serum and cultured for 24 hours in a conventional manner, after which a pre-determined amount of NFD dissolved in DMSO was added to each well. Cultivation was continued, and the number of viable cells was counted after 24, 48 and 72 hours. […]
(§3) Growth inhibitory action and lethal activity of NFD on various types of malignant tumor cells and normal human cells listed above were evaluated by counting the number of viable cells in each well of the 96-well microplate. […]

[1] = test system: Human lung squamous cell carcinoma Calu-1 cells; assay: In vitro antitumor test (trypan blue exclusion viable cell count), Calu-1; type: cell-based; conditions: 72 h, three days exposure, read-out: LD50 (IC50), 50% growth-inhibitory dose
Procedure: as §1
as §2, with “cells.” for “cells. Suspension cultures of human breast cancer MRK-nu-1 cells, human malignant B-cell lymphoma cells and human chronic myelogenous leukemia K562 cells were used to harvest the cells to be used in the test.”, “well.” for “well. Cultivation was continued, and the number of viable cells was counted after 24, 48 and 72 hours.”

[2] = test system: Human cholangiocarcinoma HuCC-T1 cells; assay: In vitro antitumor test (trypan blue exclusion viable cell count), HuCC-T1; type: cell-based
Procedure: as §1
as §2, with “cells.” for “cells. Suspension cultures of human breast cancer MRK-nu-1 cells, human malignant B-cell lymphoma cells and human chronic myelogenous leukemia K562 cells were used to harvest the cells to be used in the test.”, “well.” for “well. Cultivation was continued, and the number of viable cells was counted after 24, 48 and 72 hours.”

[3] = test system: Human renal cell carcinoma VMRC-RCW cells; assay: In vitro antitumor test (trypan blue exclusion viable cell count), VMRC-RCW; type: cell-based
Procedure: as §1, §2, §3

lung adenomas in mice = assay: Inhibition of two-step carcinogenesis in mouse lungs; type: in vivo, mouse (female ICR)
Procedure: Female ICR mice were used as test animals. Fifteen mice were housed in a cage and provided with the pellet diet and drinking water ad libitum. After one week of preliminary rearing, the six-week-old mice were given in the back a subcutaneous injection of 10 mg/kg body weight of 4-nitroquinoline-N-oxide (4NQO) dissolved in a mixture of olive oil and cholesterol (20:1). From five weeks after initiation, the mice were allowed to orally take 8% glycerol ad libitum as a carcinogenic promoter. The mice which received 4 NQO and 8% glycerol for 25 weeks served as a positive control. On the other hand, the mice in the test group were given ad libitum 8% glycerol containing 0.1 ng/ml of NFD for 25 weeks. Thirty weeks after the onset of the experiment, the mice were killed by cervical dislocation, and the lungs were removed after fixation with formalin under autopsy. Under a stereomicroscope, the adenomas formed in the lung were observed, and the number of adenomas was determined. The numbers were compared between the positive control and NFD-administered groups.

[4] = test system: Human neuroblastoma IMR-132 cells; assay: In vitro antitumor test (trypan blue exclusion viable cell count), IMR-132; type: cell-based
Procedure: as §1
as §2, with “cells.” for “cells. Suspension cultures of human breast cancer MRK-nu-1 cells, human malignant B-cell lymphoma cells and human chronic myelogenous leukemia K562 cells were used to harvest the cells to be used in the test.”, “well.” for “well. Cultivation was continued, and the number of viable cells was counted after 24, 48 and 72 hours.”

[5] = test system: Mouse melanoma B16 (M4) cells; assay: In vitro antitumor test (trypan blue exclusion viable cell count), B16 (M4); type: cell-based
Procedure: as §1
as §2, with “cells.” for “cells. Suspension cultures of human breast cancer MRK-nu-1 cells, human malignant B-cell lymphoma cells and human chronic myelogenous leukemia K562 cells were used to harvest the cells to be used in the test.”, “well.” for “well. Cultivation was continued, and the number of viable cells was counted after 24, 48 and 72 hours.”

[6] = test system: Human malignant B-cell lymphoma cells; assay: In vitro antitumor test (trypan blue exclusion viable cell count), malignant B-cell lymphoma; type: cell-based; conditions: 72 h, three days exposure, read-out: LD50 (IC50), 50% growth-inhibitory dose

CC(O)c1cc2c(o1)C(=O)c1cccc(O)c1C2=O (stereo not shown) [NFD, 2-(1-hydroxyethyl)-5-hydroxynaphtho[2,3-b]furan-4,9-dione]
selective toxicity to tumor cells (malignant tumor cells; 23 listed tumor cells): exhibits selective toxicity
growth inhibition of tumor cells (malignant tumor cells; at low concentrations, 23 listed tumor cells): remarkably inhibits the growth
IC50 (malignant tumor cells; read-out: LD50 (IC50) range over malignant tumor cells): 0.0055 to 0.025 µg/mL (≈ 0.0213 to 0.0968 µM)
IC50 [1]: 0.017 µg/mL (≈ 0.0658 µM)
IC50 ([2]; HuCCT-1, 72 h, HuCC-T1, three days exposure, read-out: LD50 (IC50), 50% growth-inhibitory dose): 0.02 µg/mL (≈ 0.0775 µM)
IC (almost complete) ([2]; HuCCT-1, FIG. 9, read-out: concentration inhibiting growth almost completely): 0.0224 µg/mL
concentration causing necrosis in almost all tumor cells ([3]; FIG. 17): 50 ng/mL
IC50 ([3]; Homo sapiens, 72 h, VMRC-RCW, three days exposure, read-out: LD50 (IC50), 50% growth-inhibitory dose): 0.019 µg/mL (≈ 0.0736 µM)
IC (almost complete) ([3]; Homo sapiens, FIG. 17, read-out: concentration inhibiting growth almost completely): 0.017 µg/mL
inhibition of adenoma formation in the lung (lung adenomas in mice; 0.1 ng/ml NFD in 8% glycerol, versus positive control): significant inhibition
expression percentage of lung adenomas, lower than that in the positive control group (lung adenomas in mice; 30th week after onset, versus 4NQO + 8% glycerol group): 1/3
IC50 ([4]; 72 h, IMR-132, three days exposure, read-out: LD50 (IC50), 50% growth-inhibitory dose): 0.01 µg/mL (≈ 0.0387 µM)
IC (almost complete) ([4]; FIG. 14, read-out: concentration inhibiting growth almost completely): 0.0447 µg/mL
IC50 ([5]; 72 h, B16 (M4), three days exposure, read-out: LD50 (IC50), 50% growth-inhibitory dose): 0.0067 µg/mL (≈ 0.0259 µM)
IC (almost complete) ([5]; FIG. 10, read-out: concentration inhibiting growth almost completely): 0.0112 µg/mL
IC50 [6]: 0.0056 µg/mL (≈ 0.0217 µM)
